These results are taken from PubChem BioAssay AID256 (DTP/NCI, 2004).

The test relates to CD2F1 mice, L1210 leukemia ip, survival T/C. Description: NCI In Vivo Anticancer Drug Screen. Data for tumor model L1210 Leukemia (intraperitoneal) in CD2F1 (CDF1) mice. The following applies: higher = longer survival. The method in brief: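 Antitumor effect is scored in animals hosting a serially transplanted tumor. Values compare compound-dosed animals against vehicle-only controls as a simple quotient.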

Setting [1] is: endpoint: median survival time, dose: 25.0 mg/kg/injection, schedule: Q01DX009 (ip), vehicle: saline with Tween-80.
[2] abbreviates: endpoint: mean survival time, dose: 25.0 mg/kg/injection, schedule: Q04DX003 (ip), vehicle: saline with Tween-80.
[3] abbreviates: endpoint: mean survival time, dose: 50.0 mg/kg/injection, schedule: Q04DX003 (ip), vehicle: saline with Tween-80.
[4] abbreviates: endpoint: mean survival time, dose: 100.0 mg/kg/injection, schedule: Q04DX003 (ip), vehicle: saline with Tween-80.
[5] abbreviates: endpoint: mean survival time, dose: 50.0 mg/kg/injection, schedule: Q01DX009 (ip), vehicle: saline with Tween-80.
Where [6] appears, read: endpoint: mean survival time, dose: 100.0 mg/kg/injection, schedule: Q04DX003 (ip), vehicle: saline.
Where [7] appears, read: endpoint: mean survival time, dose: 200.0 mg/kg/injection, schedule: Q04DX003 (ip), vehicle: saline with Tween-80.
[8] abbreviates: endpoint: mean survival time, dose: 400.0 mg/kg/injection, schedule: Q04DX003 (ip), vehicle: saline with Tween-80.

Molecules are shown by their SMILES. Where “and” joins values, the source holds several entries; their conditions need not be identical. Equal entries are not always repeated. Inconclusive results and toxic doses are left out. Non-standard residues stand in square brackets, D forms with d. Residues, ends and D or L forms follow the SMILES beside them. ξ: configuration not given here. *: point of attachment. ξF = NC(Cc1ccccc1)C(=O)O; Cbz = O=C(OCc1ccccc1)*

For `COc1cc2c[n+](C)c3c(c2cc1OC)Cc1cc2c(cc1-3)OCO2`, the T/C (endpoint: median survival time, dose: 6.0 mg/kg/injection, schedule: Q01DX009 (ip), vehicle: saline with Tween-80) was 122 % of control; the T/C under setting [1] is 152 % of control and 162 % of control; the T/C (endpoint: median survival time, dose: 50.0 mg/kg/injection, schedule: Q01DX009 (ip), vehicle: saline with Tween-80) was 164 % of control and 168 % of control; the T/C (endpoint: median survival time, dose: 100.0 mg/kg/injection, schedule: Q01DX009 (ip), vehicle: saline with Tween-80) is 94 % of control.
Regarding `Cc1cc(C)n(C(=S)[S-])n1.Cc1cc(C)n(C(=S)[S-])n1.[Pt+2]`, the T/C is, setting by setting: under setting [2], 90 % of control; under setting [3], 90 % of control; under setting [4], 105 % of control.
As for `c1cnc2c(c1)CCCC2`, the T/C is, setting by setting: (endpoint: mean survival time, dose: 12.5 mg/kg/injection, schedule: Q01DX009 (ip), vehicle: saline with Tween-80) 95 % of control; (endpoint: mean survival time, dose: 25.0 mg/kg/injection, schedule: Q01DX009 (ip), vehicle: saline with Tween-80) 91 % of control; under setting [5], 87 % of control.
In the case of `CC(C)[CH2][Sn](=[O])[OH]`, the T/C runs as follows: under setting [5], 115 % of control; (endpoint: mean survival time, dose: 100.0 mg/kg/injection, schedule: Q01DX009 (ip), vehicle: saline with Tween-80) 103 % of control.
`CCCCCCCCNCCNCCCCCCCC`: the T/C reads like this: (endpoint: mean survival time, dose: 3.75 mg/kg/injection, schedule: Q01DX009 (ip), vehicle: Klucel (hydroxypropylcellulose) (HPC)) 95 % of control; (endpoint: mean survival time, dose: 7.5 mg/kg/injection, schedule: Q01DX009 (ip), vehicle: Klucel (hydroxypropylcellulose) (HPC)) 95 % of control; (endpoint: mean survival time, dose: 15.0 mg/kg/injection, schedule: Q01DX009 (ip), vehicle: Klucel (hydroxypropylcellulose) (HPC)) 87 % of control.
`COC1OC2C(CO)OC(n3ncc4c3ncn3cnnc43)C2O1` (stereo not drawn): the T/C runs as follows: (endpoint: mean survival time, dose: 12.5 mg/kg/injection, schedule: Q01DX005 (ip), vehicle: distilled water + Tween-80) 96 % of control; (endpoint: mean survival time, dose: 25.0 mg/kg/injection, schedule: Q01DX005 (ip), vehicle: distilled water + Tween-80) 96 % of control; (endpoint: mean survival time, dose: 50.0 mg/kg/injection, schedule: Q01DX005 (ip), vehicle: distilled water + Tween-80) 92 % of control; (endpoint: mean survival time, dose: 100.0 mg/kg/injection, schedule: Q01DX005 (ip), vehicle: distilled water + Tween-80) 96 % of control; (endpoint: mean survival time, dose: 200.0 mg/kg/injection, schedule: Q01DX005 (ip), vehicle: distilled water + Tween-80) 96 % of control.
Regarding `O=[N+]([O-])c1ccc(C2Nc3cc(Cl)c(Cl)cc3S(=O)(=O)N2O)cc1` (stereo not drawn), the T/C (endpoint: mean survival time, dose: 100.0 mg/kg/injection, schedule: Q01DX001 (ip), vehicle: saline with Tween-80) is 97 % of control; the T/C (endpoint: mean survival time, dose: 100.0 mg/kg/injection, schedule: Q04DX002 (ip), vehicle: saline with Tween-80) is 107 % of control; the T/C (endpoint: mean survival time, dose: 200.0 mg/kg/injection, schedule: Q01DX001 (ip), vehicle: saline with Tween-80) is 96 % of control; the T/C (endpoint: mean survival time, dose: 200.0 mg/kg/injection, schedule: Q04DX002 (ip), vehicle: saline with Tween-80) was 107 % of control; the T/C (endpoint: mean survival time, dose: 400.0 mg/kg/injection, schedule: Q01DX001 (ip), vehicle: saline with Tween-80) was 96 % of control; the T/C (endpoint: mean survival time, dose: 400.0 mg/kg/injection, schedule: Q04DX002 (ip), vehicle: saline with Tween-80) was 103 % of control.
Take `CCNC(C)(C)C(SSSC(c1ccc(Cl)cc1)C(C)(C)NCC)c1ccc(Cl)cc1` (stereo not drawn): the T/C reads like this: under setting [6], 109 % of control; (endpoint: mean survival time, dose: 200.0 mg/kg/injection, schedule: Q04DX003 (ip), vehicle: saline) 86 % of control.
As to `Nc1nc(=O)n(C2OC(CO)C(O)C2F)cc1I` (stereo not drawn), the T/C runs as follows: (endpoint: median survival time, dose: 12.5 mg/kg/injection, schedule: Q01DX005 (ip), vehicle: saline) 103 % of control; (endpoint: median survival time, dose: 25.0 mg/kg/injection, schedule: Q01DX005 (ip), vehicle: saline) 102 % of control; (endpoint: median survival time, dose: 50.0 mg/kg/injection, schedule: Q01DX005 (ip), vehicle: saline) 104 % of control; (endpoint: median survival time, dose: 100.0 mg/kg/injection, schedule: Q01DX005 (ip), vehicle: saline) 97 % of control; (endpoint: median survival time, dose: 200.0 mg/kg/injection, schedule: Q01DX005 (ip), vehicle: saline) 103 % of control.
`O=C(NCO)c1ccccc1`: the T/C reads like this: (endpoint: mean survival time, dose: 50.0 mg/kg/injection, schedule: Q01DX009 (ip), vehicle: Klucel (hydroxypropylcellulose) (HPC)) 96 % of control; (endpoint: mean survival time, dose: 100.0 mg/kg/injection, schedule: Q01DX009 (ip), vehicle: Klucel (hydroxypropylcellulose) (HPC)) 96 % of control; (endpoint: mean survival time, dose: 200.0 mg/kg/injection, schedule: Q01DX009 (ip), vehicle: Klucel (hydroxypropylcellulose) (HPC)) 96 % of control.
`N=C(N)c1ccc(N=NNc2ccc(C(=N)N)cc2)cc1`: the T/C by setting is: (endpoint: median survival time, dose: 12.5 mg/kg/injection, schedule: Q01DX009 (ip), vehicle: saline with Tween-80) 117 % of control; under setting [1], 102 % of control.
In the case of `CC1=CC(C)(C(Cl)Cl)C=CC1=O` (stereo not drawn), the T/C by setting is: (endpoint: mean survival time, dose: 75.0 mg/kg/injection, schedule: Q01DX009 (ip), vehicle: saline with Tween-80) 101 % of control; under setting [4], 102 % of control; (endpoint: mean survival time, dose: 150.0 mg/kg/injection, schedule: Q01DX009 (ip), vehicle: saline with Tween-80) 101 % of control; under setting [7], 95 % of control; (endpoint: mean survival time, dose: 300.0 mg/kg/injection, schedule: Q01DX009 (ip), vehicle: saline with Tween-80) 98 % of control; under setting [8], 93 % of control.
As to `CC(N)(C(=O)O)c1ccccc1` (stereo not drawn), the T/C was 92 % of control and 96 % of control (endpoint: mean survival time, dose: 100.0 mg/kg/injection, schedule: Q01DX001 (ip), vehicle: other); 100 % of control and 102 % of control (endpoint: mean survival time, dose: 200.0 mg/kg/injection, schedule: Q01DX001 (ip), vehicle: other); 96 % of control and 94 % of control (endpoint: mean survival time, dose: 400.0 mg/kg/injection, schedule: Q01DX001 (ip), vehicle: other).
`Nc1cccnc1`: the T/C runs as follows: (endpoint: mean survival time, dose: 5.0 mg/kg/injection, schedule: Q04DX003 (ip), vehicle: saline) 92 % of control; (endpoint: mean survival time, dose: 10.0 mg/kg/injection, schedule: Q04DX003 (ip), vehicle: saline) 94 % of control; (endpoint: mean survival time, dose: 20.0 mg/kg/injection, schedule: Q04DX003 (ip), vehicle: saline) 94 % of control.
On to `N=C(N)SC(c1ccccc1)c1ccccc1`, for which the T/C by setting is: (endpoint: mean survival time, dose: 25.0 mg/kg/injection, schedule: Q04DX003 (ip), vehicle: saline) 100 % of control; (endpoint: mean survival time, dose: 50.0 mg/kg/injection, schedule: Q04DX003 (ip), vehicle: saline) 94 % of control; under setting [6], 102 % of control.
Regarding `CC(=O)On1nnc2ccccc2c1=O`, the T/C is 101 % of control (endpoint: mean survival time, dose: 12.5 mg/kg/injection, schedule: Q01DX001 (ip), vehicle: distilled water + Tween-80); 100 % of control (endpoint: mean survival time, dose: 25.0 mg/kg/injection, schedule: Q01DX001 (ip), vehicle: distilled water + Tween-80); 95 % of control (endpoint: mean survival time, dose: 50.0 mg/kg/injection, schedule: Q01DX001 (ip), vehicle: distilled water + Tween-80); 90 % of control (endpoint: mean survival time, dose: 100.0 mg/kg/injection, schedule: Q01DX001 (ip), vehicle: distilled water + Tween-80).
In the case of `CN(CCO)N=Nc1ccccc1`, the T/C reads like this: (endpoint: mean survival time, dose: 75.0 mg/kg/injection, schedule: Q01DX001 (ip), vehicle: saline) 102 % of control; (endpoint: mean survival time, dose: 150.0 mg/kg/injection, schedule: Q01DX001 (ip), vehicle: saline) 105 % of control.
For the compound `O=C(C[n+]1ccccc1Cc1ccccc1)c1ccccc1`, the T/C is 93 % of control under setting [2], 96 % of control under setting [3] and 101 % of control under setting [4].
As for `CC[C@@]1(OC(=O)C(N)CCC(=O)O)C(=O)OCc2c1cc1n(c2=O)Cc2cc3ccccc3nc2-1` (stereo partly drawn), the T/C was 107 % of control and 108 % of control (endpoint: median survival time, dose: 6.85 mg/kg/injection, schedule: Q04DX002 (ip), vehicle: water); 120 % of control and 111 % of control (endpoint: median survival time, dose: 10.27 mg/kg/injection, schedule: Q04HX004 (iv), vehicle: water); 113 % of control (endpoint: median survival time, dose: 13.69 mg/kg/injection, schedule: Q04DX002 (ip), vehicle: water); 122 % of control (endpoint: median survival time, dose: 27.39 mg/kg/injection, schedule: Q04DX002 (ip), vehicle: water); 184 % of control and 197 % of control (endpoint: median survival time, dose: 41.08 mg/kg/injection, schedule: Q04HX004 (iv), vehicle: water); 154 % of control and 170 % of control (endpoint: median survival time, dose: 54.78 mg/kg/injection, schedule: Q04DX002 (ip), vehicle: water). Further, the T/C reads like this: (endpoint: median survival time, dose: 54.78 mg/kg/injection, schedule: Q04HX004 (iv), vehicle: water) 204 % of control and 211 % of control; (endpoint: median survival time, dose: 109.6 mg/kg/injection, schedule: Q04DX002 (ip), vehicle: water) 208 % of control.
Regarding `O=C(CNC(=O)OCc1ccccc1)NCC(=O)NC(Cc1ccccc1)C(=O)O` (stereo not drawn) (Cbz-Gly-Gly-[ξF]-OH), the T/C by setting is: under setting [4], 96 % of control; under setting [7], 93 % of control; under setting [8], 93 % of control.
